Experimental data as given in the supplement of paper PMC11208160.

Assay: recombinant UMI read abundance after kanamycin selection (control-corrected) (log10(CPM+1)); higher = more efficient recombination; extreme values may be limits of the assay; sequences stand for … in AGTGCAGAGAAAATCGGCCAGTTTTCTCTGCCTGCAGTCCGCATGCCGTGGGACCCCTTGGGTTCTAACCTGTTGCCTAGATTTATGCAGCGGACTGCCTTTCTCCCAAAGTGATAAACCGG…AGGTTGGTTTCACT; site = the 11-nt donor
Summary of the method: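 After plating on IPTG (0.07 mM) plus kanamycin, or unselected, in two replicates, recombinant UMIs were PCR-amplified across the donor–target junction and sequenced. The cells were Escherichia coli co-electroporated with a UMI-tagged donor and donor-binding-loop pair library and a target plasmid with a fixed target and T7-inducible IS621 bridge recombinase. Values are log10(CPM+1), with CPM averaged over replicates and scaled by control-derived factors.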
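Also: IS621 bridge recombinase in Escherichia coli cells against a fixed T5 target plasmid.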

Sequence	recombinant UMI read abundance (log10)
CGCCATACATGGACCGGTTTTCCCGGTAATCCGTATTTGCT (site CGCCCTACTAG)	0.00847
CGCCATACATGGACCGGTTTTCCCGGTAATCCGTATTTGCT (site CGCCGTACTAG)	0
CGCCATACATGGACCGGTTTTCCCGGTAATCCGTATTTGCT (site CGCCTTACTAG)	0.046
CGCCGCTCATGGACCGGTTTTCCCGGTAATCCGTATTTGCC (site CGCCGCTCTGG)	2.47
CGCCTAACATGGACCGGTTTTCCCGGTAATCCGTATTTGGG (site CGCCTAACTCC)	0.0879
CGCGAACCATGGACCGGTTTTCCCGGTAATCCGTATTTGAT (site CGAGAACCTAT)	0
CGCGAACCATGGACCGGTTTTCCCGGTAATCCGTATTTGAT (site CGCGAACCTAT)	0
CGCGAACCATGGACCGGTTTTCCCGGTAATCCGTATTTGAT (site CGGGAACCTAT)	0
CGCGAACCATGGACCGGTTTTCCCGGTAATCCGTATTTGAT (site CGTGAACCTAT)	0
CGCGATTCATGGACCGGTTTTCCCGGTAATCCGTATTTGGC (site CGCGATTCTGC)	1.61
CGCGCGCCATGGACCGGTTTTCCCGGTAATCCGTATTTGAG (site CGCGCGCCTCT)	0.0359
CGCGGTACATGGACCGGTTTTCCCGGTAATCCGTATTTGCT (site CGCAGTACTAG)	1.64
CGCGGTACATGGACCGGTTTTCCCGGTAATCCGTATTTGCT (site CGCCGTACTAG)	0
CGCGGTACATGGACCGGTTTTCCCGGTAATCCGTATTTGCT (site CGCGGTACTAG)	1.92
CGCGGTACATGGACCGGTTTTCCCGGTAATCCGTATTTGCT (site CGCTGTACTAG)	0.467
CGCGTCACATGGACCGGTTTTCCCGGTAATCCGTATTTGAC (site CGCGTCACTGT)	2.44
CGCGTGTCATGGACCGGTTTTCCCGGTAATCCGTATTTGAC (site CGCGTGTCTGT)	0
CGCTAATCATGGACCGGTTTTCCCGGTAATCCGTATTTGCT (site CGATCATCTAG)	0
CGCTAATCATGGACCGGTTTTCCCGGTAATCCGTATTTGCT (site CGCTAATCTAG)	1.97
CGCTACACATGGACCGGTTTTCCCGGTAATCCGTATTTGCT (site CACTACACTAG)	1.32
CGCTACACATGGACCGGTTTTCCCGGTAATCCGTATTTGCT (site CCCTACACTAG)	1.29
CGCTACACATGGACCGGTTTTCCCGGTAATCCGTATTTGCT (site CGCTACACTAG)	2.9
CGCTACACATGGACCGGTTTTCCCGGTAATCCGTATTTGCT (site CTCTACACTAG)	0.92
CGCTAGGCATGGACCGGTTTTCCCGGTAATCCGTATTTGGT (site AGCTAGGCTAC)	0.0207
CGCTAGGCATGGACCGGTTTTCCCGGTAATCCGTATTTGGT (site CGCTAGGCTAC)	0.0166

Sequence	recombinant UMI read abundance (log10)
CGCTAGGCATGGACCGGTTTTCCCGGTAATCCGTATTTGGT (site GGCTAGGCTAC)	0.00627
CGCTAGGCATGGACCGGTTTTCCCGGTAATCCGTATTTGGT (site TGCTAGGCTAC)	0.0198
CGCTCAACATGGACCGGTTTTCCCGGTAATCCGTATTTGCC (site CGCTCAACTGG)	0.429
CGCTCATCATGGACCGGTTTTCCCGGTAATCCGTATTTGCG (site CGATCATCTAG)	0
CGCTCATCATGGACCGGTTTTCCCGGTAATCCGTATTTGCG (site CGCTCATCTCG)	0.716
CGCTCATCATGGACCGGTTTTCCCGGTAATCCGTATTTGCT (site CGATCATCTAG)	0
CGCTCATCATGGACCGGTTTTCCCGGTAATCCGTATTTGCT (site CGCTCATCTAG)	2.6
CGCTCATCATGGACCGGTTTTCCCGGTAATCCGTATTTGCT (site CGGTCATCTAG)	0
CGCTCATCATGGACCGGTTTTCCCGGTAATCCGTATTTGCT (site CGTTCATCTAG)	1.35
CGCTCGACATGGACCGGTTTTCCCGGTAATCCGTATTTGTT (site CGATCGACTAA)	0
CGCTCGACATGGACCGGTTTTCCCGGTAATCCGTATTTGTT (site CGCTCGACTAA)	0
CGCTCGACATGGACCGGTTTTCCCGGTAATCCGTATTTGTT (site CGGTCGACTAA)	0
CGCTCGACATGGACCGGTTTTCCCGGTAATCCGTATTTGTT (site CGTTCGACTAA)	0
CGCTGGCCATGGACCGGTTTTCCCGGTAATCCGTATTTGCT (site CGCTGGCCTAG)	0.278
CGCTTGGCATGGACCGGTTTTCCCGGTAATCCGTATTTGCT (site CGATTGGCTAG)	0
CGCTTGGCATGGACCGGTTTTCCCGGTAATCCGTATTTGCT (site CGCTTGGCTAG)	0
CGCTTGGCATGGACCGGTTTTCCCGGTAATCCGTATTTGCT (site CGGTTGGCTAG)	0
CGCTTGGCATGGACCGGTTTTCCCGGTAATCCGTATTTGCT (site CGTTTGGCTAG)	0
CGCTTGTCATGGACCGGTTTTCCCGGTAATCCGTATTTGCG (site CGCTTGTCTCG)	1.46
CGGAAATCATGGACCGGTTTTCCCGGTAATCCGTATTTGCT (site CGGAAATCTAG)	2.06
CGGAAATCATGGACCGGTTTTCCCGGTAATCCGTATTTGCT (site CGGACATCTAG)	0.293
CGGAAATCATGGACCGGTTTTCCCGGTAATCCGTATTTGCT (site CGGAGATCTAG)	0.215
CGGAAATCATGGACCGGTTTTCCCGGTAATCCGTATTTGCT (site CGGATATCTAG)	0
CGGAACGCATGGACCGGTTTTCCCGGTAATCCGTATTTGTT (site CGGAACGCTAA)	3.15
CGGAACGCATGGACCGGTTTTCCCGGTAATCCGTATTTGTT (site CGGAATCCTAA)	0.0213

Sequence	recombinant UMI read abundance (log10)
CGGAAGACATGGACCGGTTTTCCCGGTAATCCGTATTTGTT (site CGGAAGACTAA)	2.3
CGGAAGACATGGACCGGTTTTCCCGGTAATCCGTATTTGTT (site CGGAATCCTAA)	0.00737
CGGAAGCCATGGACCGGTTTTCCCGGTAATCCGTATTTGAT (site CGGAAGCCTAT)	0.713
CGGAAGCCATGGACCGGTTTTCCCGGTAATCCGTATTTGAT (site CGGAATCCTAA)	0
CGGAAGCCATGGACCGGTTTTCCCGGTAATCCGTATTTGCA (site AGGAAGACTTG)	0
CGGAAGCCATGGACCGGTTTTCCCGGTAATCCGTATTTGCA (site CGGAAGCCTTG)	0
CGGAATCCATGGACCGGTTTTCCCGGTAATCCGTATTTGCA (site CGGAATCCTAA)	0
CGGAATCCATGGACCGGTTTTCCCGGTAATCCGTATTTGCA (site CGGAATCCTTG)	0.628
CGGAATTCATGGACCGGTTTTCCCGGTAATCCGTATTTGAA (site CGGAATTCTTT)	1.67
CGGAATTCATGGACCGGTTTTCCCGGTAATCCGTATTTGTA (site CGGAATCCTAA)	0.00369
CGGAATTCATGGACCGGTTTTCCCGGTAATCCGTATTTGTA (site CGGAATTCTTA)	2.78
CGGACAACATGGACCGGTTTTCCCGGTAATCCGTATTTGCT (site CGGACAACTAG)	1.89
CGGACAACATGGACCGGTTTTCCCGGTAATCCGTATTTGCT (site CGGACACCTAG)	0
CGGACAACATGGACCGGTTTTCCCGGTAATCCGTATTTGCT (site CGGACAGCTAG)	0.34
CGGACAACATGGACCGGTTTTCCCGGTAATCCGTATTTGCT (site CGGACATCTAG)	2.39
CGGACATCATGGACCGGTTTTCCCGGTAATCCGTATTTGCA (site CGGACATCTAG)	0
CGGACATCATGGACCGGTTTTCCCGGTAATCCGTATTTGCA (site CGGACATCTCG)	0
CGGACATCATGGACCGGTTTTCCCGGTAATCCGTATTTGCA (site CGGACATCTGG)	0
CGGACATCATGGACCGGTTTTCCCGGTAATCCGTATTTGCA (site CGGACATCTTG)	2.76
CGGACATCATGGACCGGTTTTCCCGGTAATCCGTATTTGGT (site CGGACATCTAA)	0.416
CGGACATCATGGACCGGTTTTCCCGGTAATCCGTATTTGGT (site CGGACATCTAC)	2.13
CGGACATCATGGACCGGTTTTCCCGGTAATCCGTATTTGGT (site CGGACATCTAG)	0
CGGACATCATGGACCGGTTTTCCCGGTAATCCGTATTTGGT (site CGGACATCTAT)	1.15
CGGACCTCATGGACCGGTTTTCCCGGTAATCCGTATTTGCT (site CGGACATCTAG)	0.00704
CGGACCTCATGGACCGGTTTTCCCGGTAATCCGTATTTGCT (site CGGACCTCTAG)	3.12
